Results on 3 compounds are retold here after patent publication US20170107207A1, “AMINOPYRAZOLONE DERIVATIVE” (DAIICHI SANKYO COMPANY, LIMITED, priority 2014, published 2017).

What all share (type): cell-based
For one experiment, the system named is U251. The experiment can be described thus: Cell growth inhibition test, U251. Particulars: Homo sapiens, U-251, 72 h; U251, Brain tumor Central Nerve System, 3 days, CellTiter-Glo. The procedure: (§1) A cell growth inhibition test was carried out by treating a cultured cancer cell line with a test compound for a given period and then counting the number of viable cells by CellTiter-Glo Luminescent Cell Viability Assay (manufactured by Promega Corp.).
(§2) The following cells were inoculated to a 384-well plate containing the compound prepared in advance at predetermined concentrations. […]
(§3) The cells thus inoculated were cultured at 37° C. for 3 days under 5% CO2. […] Then, luminescence intensity was measured using a plate reader.
(§4) The number of viable cells and luminescence intensity have been confirmed to correlate with each other. Therefore, the rate of cell growth was calculated according to the following expression: Rate of cell growth (T/C %) of a test compound-supplemented well=100×[(B−C)/(A−C)] wherein A represents the luminescence intensity (final culture date) of a test compound-free well; B represents the luminescence intensity (final culture date) of a test compound-containing well; and C represents the luminescence intensity (day of cell inoculation) of a well at the start of contact of the cells with the test compound.
(§5) T/C % at the concentration of each of the serially diluted test compounds was determined. […]

The subject of a further experiment is 786-0. Description: Cell growth inhibition test, 786-0. Particulars: Homo sapiens, 72 h; 786-0, Kidney cancer, 3 days, CellTiter-Glo. The procedure: as §1, §2, §3, §4, §5
The subject of the next experiment is BxPC-3. The experiment can be described thus: Cell growth inhibition test, BxPC-3. Particulars: Homo sapiens, 72 h; BxPC-3, Pancreatic cancer, 3 days, CellTiter-Glo. The procedure:
as §1, §2, §3, §4, §5

In a further experiment the test system is D283 Med. Description: Cell growth inhibition test, D283 Med. Particulars: Homo sapiens, 72 h, Brain tumor Central Nerve System, 3 days, CellTiter-Glo. The procedure:
as §1, §2, §3, §4, §5

For another experiment, the system named is MDA-MB-231. The experiment can be described thus: Cell growth inhibition test, MDA-MB-231. Particulars: Homo sapiens, 72 h; MDA-MB-231, Breast cancer, 3 days, CellTiter-Glo. The procedure: as §1, §2, §3, §4, §5
The next experiment relates to CCRF-CEM. Description: Cell growth inhibition test, CCRF-CEM. Particulars: Homo sapiens, 72 h, Leukemia, 3 days, CellTiter-Glo. The procedure:
as §1, §2, §3, §4, §5

Another experiment concerns DOHH-2. The experiment can be described thus: Cell growth inhibition test, DOHH-2. Particulars: Homo sapiens, 72 h; DOHH-2, Lymphoma, 3 days, CellTiter-Glo. The procedure:
as §1, §2, §3, §4, §5

The subject of the next experiment is HUH-7. Description: Cell growth inhibition test, HUH-7. Particulars: Homo sapiens, 72 h; HUH-7, Liver cancer, 3 days, CellTiter-Glo. The procedure: as §1, §2, §3, §4, §5
Another experiment concerns SK-OV-3. Description: Cell growth inhibition test, SK-OV-3. The conditions noted are these: Homo sapiens, 72 h; SK-OV-3, Ovary cancer, 3 days, CellTiter-Glo. The procedure: as §1, §2, §3, §4, §5
In the next experiment the test system is SJSA-1. Description: Cell growth inhibition test, SJSA-1. Particulars: Homo sapiens, 72 h; SJSA-1, Bone and soft tissue tumor, 3 days, CellTiter-Glo. The procedure:
as §1, §2, §3, §4, §5

The test system of a further experiment is MCF7. Description: Cell growth inhibition test, MCF7. Particulars: Homo sapiens, 72 h; MCF7, Breast cancer, 3 days, CellTiter-Glo. The procedure: as §1, §2, §3, §4, §5
The subject of a further experiment is NCI-H1975. The experiment can be described thus: Cell growth inhibition test, NCI-H1975. Particulars: Homo sapiens, 72 h; NCI-H1975, Lung cancer, 3 days, CellTiter-Glo. The procedure:
as §1, §2, §3, §4, §5

The test system of the next experiment is RPMI 8226. Description: Cell growth inhibition test, RPMI 8226. Particulars: Homo sapiens, 72 h; RPMI 8226, Multiple myeloma, 3 days, CellTiter-Glo. The procedure:
as §1, §2, §3, §4, §5

For another experiment, the system named is U2 OS. Description: Cell growth inhibition test, U2 OS. The conditions noted are these: Homo sapiens, U2OS, 72 h, Bone and soft tissue tumor, 3 days, CellTiter-Glo. The procedure: as §1, §2, §3, §4, §5
A further experiment concerns DMS 273. The experiment can be described thus: Cell growth inhibition test, DMS 273. Particulars: Homo sapiens, 72 h; DMS 273, Lung cancer, 3 days, CellTiter-Glo. The procedure: as §1, §2, §3, §4, §5
The next experiment deals with MDA-MB-468. Description: Cell growth inhibition test, MDA-MB-468. Particulars: Homo sapiens, 72 h; MDA-MB-468, Breast cancer, 3 days, CellTiter-Glo. The procedure: as §1, §2, §3, §4, §5
The test system of another experiment is NALM-6. Description: Cell growth inhibition test, NALM-6. The conditions noted are these: Homo sapiens, 72 h; NALM-6, Leukemia, 3 days, CellTiter-Glo. The procedure: as §1, §2, §3, §4, §5
The next experiment deals with NCI-H460. Description: Cell growth inhibition test, NCI-H460. The conditions noted are these: Homo sapiens, 72 h; NCI-H460, Lung cancer, 3 days, CellTiter-Glo. The procedure: as §1, §2, §3, §4, §5
In a further experiment the test system is MKN45. The experiment can be described thus: Cell growth inhibition test, MKN45. The conditions noted are these: Homo sapiens, MKN-45, 72 h; MKN45, Stomach cancer, 3 days, CellTiter-Glo. The procedure:
as §1, §2, §3, §4, §5

Consider `CCOc1cc(F)c(Cl)cc1C(=O)NCC(C)(C)CC(=O)Nc1c(COC)n(C)n(-c2ccccc2)c1=O` [Example 113, 5-Chloro-2-ethoxy-4-fluoro-N-(4-{[5-(methoxymethyl)-1-methyl-3-oxo-2-phenyl-2,3-dihydro-1H-pyrazol-4-yl]amino}-2,2-dimethyl-4-oxobutyl)benzamide], for which the GI50 came to 800 nM in the experiment on U251; 320 nM in the experiment on 786-0; 370 nM with BxPC-3; 230 nM with D283 Med; 770 nM with MDA-MB-231; 530 nM in the experiment with CCRF-CEM. Moreover, the GI50 with DOHH-2 was found to be 460 nM; with HUH-7 it was 360 nM; in the experiment with SK-OV-3, 700 nM; with SJSA-1 it was 870 nM; in the experiment on MCF7, 750 nM; in the experiment on NCI-H1975 it was 810 nM. The GI50 in the experiment on RPMI 8226 came to 160 nM; in the experiment with U2 OS it was 640 nM; in the experiment with DMS 273 it was 540 nM; in the experiment with MDA-MB-468, 320 nM; with NALM-6, 270 nM; in the experiment with NCI-H460, 550 nM. In the experiment on MKN45, the GI50 was determined as 1000 nM.
With `CCOc1ncc(Cl)cc1C(=O)NCC(C)(C)CC(=O)Nc1c([C@H](C)CN(C)C)n(C)n(-c2ccccc2)c1=O` [Example 73, 5-Chloro-N-[4-({5-[(1R)-2-(dimethylamino)-1-methylethyl]-1-methyl-3-oxo-2-phenyl-2,3-dihydro-1H-pyrazol-4-yl}amino)-2,2-dimethyl-4-oxobutyl]-2-ethoxypyridine-3-carboxamide], the GI50 was 980 nM in the experiment with U251; 920 nM in the experiment with 786-0; 440 nM in the experiment on BxPC-3; 310 nM in the experiment on D283 Med; 890 nM in the experiment on MDA-MB-231; 590 nM with CCRF-CEM. Besides, the GI50 with DOHH-2 was determined as 630 nM; in the experiment with HUH-7 it was 900 nM; with SK-OV-3 it was 980 nM; in the experiment on SJSA-1 it was 1300 nM; in the experiment with MCF7, 980 nM; in the experiment on NCI-H1975, 900 nM. In addition, the GI50 stood at 180 nM in the experiment with RPMI 8226; 920 nM with U2 OS; 780 nM with DMS 273; 510 nM in the experiment on MDA-MB-468; 330 nM in the experiment on NALM-6; 730 nM with NCI-H460. Growth in the experiment with MKN45 was halved (GI50) at 1100 nM.
In the case of `CCOc1ccc(Cl)cc1C(=O)NCC(C)(C)CC(=O)Nc1c([C@H](C)CN(C)C)n(C)n(-c2ccccc2)c1=O` [Example 68, 5-Chloro-N-[4-({5-[(1R)-2-(dimethylamino)-1-methylethyl]-1-methyl-3-oxo-2-phenyl-2,3-dihydro-1H-pyrazol-4-yl}amino)-2,2-dimethyl-4-oxobutyl]-2-ethoxybenzamide], the GI50 in the experiment with U251 was found to be 440 nM; in the experiment with 786-0, 680 nM; with BxPC-3 it was 220 nM; with D283 Med it was 130 nM; with MDA-MB-231, 350 nM; in the experiment on CCRF-CEM it was 220 nM. Besides, the GI50 with DOHH-2 was 240 nM; with HUH-7, 670 nM; with SK-OV-3, 510 nM; in the experiment on SJSA-1, 750 nM; in the experiment with MCF7, 530 nM; in the experiment with NCI-H1975, 490 nM. In addition, the GI50 with RPMI 8226 was found to be 140 nM; with U2 OS, 530 nM; in the experiment with DMS 273 it was 310 nM; with MDA-MB-468, 170 nM; in the experiment with NALM-6, 130 nM; in the experiment on NCI-H460, 310 nM. In the experiment on MKN45, growth was halved (GI50) at 480 nM.
